Data: patent publication US12281149B2, “Modulators of G-protein coupled receptors” (priority 2021, dated 2025)
*1 amine or outer side, *2 acyl side, *3 side chain or, on linkers, in order; H or OH if unused. Where a SMILES comes first, the peptide text is derived from it. Side-chain parts run from the residue outwards. [ ]: non-standard residue; d: D form. The star is where a group is joined. Isobutyryl(2-(3-CN-5-F-Ph)) = CC(C)(C(=O)*)c1cc(F)cc(C#N)c1; cPentCO(1-(4-ClPh)) = O=C(C1(c2ccc(Cl)cc2)CCCC1)*; C20 diacid = O=C(O)CCCCCCCCCCCCCCCCCCC(=O)*; β2hAla(2S) = C[C@@H](CN[*:1])C(=O)[*:2]; γGlu = O=C(O)[C@H](CCC(=O)[*:2])N[*:1]; X69 = CC(C)(C(=O)*)c1c(F)cccc1F; X77 = CC(C(=O)*)c1cc(F)cc(F)c1; AEEA = NCCOCCOCC(=O)O; Aib = CC(C)(N)C(=O)O; βAla = NCCC(=O)O

Legend:
Format in all cases: cell-based
GIP receptor [1] = target: T1, GIP receptor (Homo sapiens, UniProt P48546); assay: HitHunter cAMP assay, GIP receptor; conditions: for EC50: CHO cells stably expressing GIP receptor, cAMP accumulation, 30 min, read-out: EC50 GIP-1R; for Emax: CHO cells, cAMP, normalized to maximum signal from GIP (high) and DMSO (low), read-out: Emax GIP-1R
T1 sequence (P48546 22-466): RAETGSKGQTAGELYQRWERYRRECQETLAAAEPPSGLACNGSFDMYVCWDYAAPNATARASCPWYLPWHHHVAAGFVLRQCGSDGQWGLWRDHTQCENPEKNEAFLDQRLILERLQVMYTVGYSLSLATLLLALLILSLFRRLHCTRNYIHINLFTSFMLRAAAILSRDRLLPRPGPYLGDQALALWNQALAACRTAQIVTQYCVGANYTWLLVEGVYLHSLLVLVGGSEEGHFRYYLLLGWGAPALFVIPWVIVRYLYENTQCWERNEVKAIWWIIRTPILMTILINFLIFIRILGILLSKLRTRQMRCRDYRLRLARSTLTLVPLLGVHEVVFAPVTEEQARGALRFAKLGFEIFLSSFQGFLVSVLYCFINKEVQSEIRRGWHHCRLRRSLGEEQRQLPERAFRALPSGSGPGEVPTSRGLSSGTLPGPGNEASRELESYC

GLP-1 receptor [2] = target: T2, GLP-1 receptor (Homo sapiens, UniProt P43220); assay: PathHunter β-arrestin assay, GLP-1 receptor; set-up: host or cells: PathHunter CHO-K1 GLP1R β-Arrestin Cell Line; conditions: β-arrestin-2 recruitment, PathHunter CHO-K1 GLP1R β-Arrestin Cell Line, 90 min at 37° C.; normalized to GLP-1; read-out: GLP-1R β Arrestin EC50
GIP receptor [3] = target: T1, GIP receptor; assay: PathHunter β-arrestin assay, GIP receptor; set-up: host or cells: PathHunter CHO-K1 GIPR β-Arrestin Cell Line; conditions: β-arrestin-2 recruitment, PathHunter CHO-K1 GIPR β-Arrestin Cell Line, 90 min at 37° C.; normalized to GIP; read-out: GIPR β Arrestin EC50
GLP-1 receptor [4] = target: T2, GLP-1 receptor; assay: HitHunter cAMP assay, GLP-1 receptor; conditions: for EC50: CHO cells stably expressing human GLP-1 receptor, cAMP accumulation, 30 min, read-out: EC50 GLP-1R; for Emax: CHO cells, cAMP, normalized to maximum signal from GLP-1 (high) and DMSO (low), read-out: Emax GLP-1R

T2 sequence (P43220 24-463): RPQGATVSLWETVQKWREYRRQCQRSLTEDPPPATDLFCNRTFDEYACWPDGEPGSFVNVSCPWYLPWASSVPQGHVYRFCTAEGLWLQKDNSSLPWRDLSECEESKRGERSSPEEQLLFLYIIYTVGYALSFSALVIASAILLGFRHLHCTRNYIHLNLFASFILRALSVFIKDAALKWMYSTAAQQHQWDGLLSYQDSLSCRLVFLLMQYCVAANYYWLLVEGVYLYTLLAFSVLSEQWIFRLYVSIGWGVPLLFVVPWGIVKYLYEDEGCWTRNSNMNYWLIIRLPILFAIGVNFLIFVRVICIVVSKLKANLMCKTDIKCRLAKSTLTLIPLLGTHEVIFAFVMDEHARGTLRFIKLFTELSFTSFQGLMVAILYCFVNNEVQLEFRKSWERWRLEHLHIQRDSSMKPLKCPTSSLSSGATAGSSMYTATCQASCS

Structure (SMILES)	EC50 (GIP receptor [1]) [nM]	Emax (GIP receptor [1]) [%]	EC50 (GLP-1 receptor [2]) [nM]	EC50 (GIP receptor [3]) [nM]	EC50 (GLP-1 receptor [4]) [nM]	Emax (GLP-1 receptor [4]) [%]
CC[C@H](C)[C@H](NC(=O)[C@H](CC(C)C)NC(=O)[C@H](Cc1c[nH]c2ccccc12)NC(=O)[C@H](CCC(N)=O)NC(=O)[C@@H](NC(=O)[C@H](Cc1ccccc1)NC(=O)[C@H](C)NC(=O)[C@H](CCCCNC(=O)COCCOCCNC(=O)COCCOCCNC(=O)CC[C@H](NC(=O)CCCCCCCCCCCCCCCCCCC(=O)O)C(=O)O)NC(=O)[C@H](CCC(N)=O)NC(=O)[C@H](C)NC(=O)[C@@H](NC(=O)[C@H](CCCCN)NC(=O)[C@H](CC(=O)O)NC(=O)[C@H](CC(C)C)NC(=O)C(C)(C)NC(=O)[C@@H](NC(=O)[C@H](CO)NC(=O)[C@H](Cc1ccc(O)cc1)NC(=O)[C@H](CC(=O)O)NC(=O)[C@H](CO)NC(=O)[C@@H](NC(=O)[C@H](Cc1ccccc1)NC(=O)[C@@H](NC(=O)CNC(=O)[C@H](CCC(=O)O)NC(=O)[C@@H](C)CNC(=O)C1(c2ccc(Cl)cc2)CCCC1)[C@@H](C)O)[C@@H](C)O)[C@@H](C)CC)[C@@H](C)CC)C(C)C)C(=O)N[C@@H](C)C(=O)NCC(=O)NCC(=O)N1CCC[C@H]1C(=O)N[C@@H](CO)C(=O)N[C@@H](CO)C(=O)NCC(=O)N[C@@H](C)C(=O)N1CCC[C@H]1C(=O)N1CCC[C@H]1C(=O)N1CCC[C@H]1C(=O)N[C@@H](CO)C(N)=O [Compound 181] ({cPentCO(1-(4-ClPh))}-[β2hAla(2S)]EGTFTSDYSI[Aib]LDKIAQK([AEEA-AEEA-γGlu-C20 diacid])AFVQWLIAGGPSSGAPPPS-NH2)	1 to 10	106	> 1000	< 1000	0.1 to 1	97
CC[C@H](C)[C@H](NC(=O)[C@H](CCCCN)NC(=O)[C@H](CC(=O)O)NC(=O)[C@H](CC(C)C)NC(=O)C(C)(C)NC(=O)[C@@H](NC(=O)[C@H](CO)NC(=O)[C@H](Cc1ccc(O)cc1)NC(=O)[C@H](CC(=O)O)NC(=O)[C@H](CO)NC(=O)[C@@H](NC(=O)[C@H](Cc1ccccc1)NC(=O)[C@@H](NC(=O)CNC(=O)[C@H](CCC(=O)O)NC(=O)CCNC(=O)C(C)(C)c1cc(F)cc(C#N)c1)[C@@H](C)O)[C@@H](C)O)[C@@H](C)CC)C(=O)N[C@@H](C)C(=O)N[C@@H](CCC(N)=O)C(=O)N[C@@H](CCCCNC(=O)COCCOCCNC(=O)COCCOCCNC(=O)CC[C@H](NC(=O)CCCCCCCCCCCCCCCCCCC(=O)O)C(=O)O)C(=O)N[C@@H](C)C(=O)N[C@@H](Cc1ccccc1)C(=O)N[C@H](C(=O)N[C@@H](CCC(N)=O)C(=O)N[C@@H](Cc1c[nH]c2ccccc12)C(=O)N[C@@H](CC(C)C)C(=O)N[C@@H](CC(C)C)C(=O)N[C@@H](C)C(=O)NCC(=O)NCC(=O)N1CCC[C@H]1C(=O)N[C@@H](CO)C(=O)N[C@@H](CO)C(=O)NCC(=O)N[C@@H](C)C(=O)N1CCC[C@H]1C(=O)N1CCC[C@H]1C(=O)N1CCC[C@H]1C(=O)N[C@@H](CO)C(N)=O)C(C)C [Compound 190] ({Isobutyryl(2-(3-CN-5-F-Ph))-βAla}-EGTFTSDYSI[Aib]LDKIAQK([AEEA-AEEA-γGlu-C20 diacid])AFVQWLLAGGPSSGAPPPS-NH2)	1 to 10	100	> 1000	> 1000	1 to 10	98
CC[C@H](C)[C@H](NC(=O)[C@H](CO)NC(=O)[C@H](CCCCNC(=O)COCCOCCNC(=O)COCCOCCNC(=O)CC[C@H](NC(=O)CCCCCCCCCCCCCCCCCCC(=O)O)C(=O)O)NC(=O)[C@H](CC(=O)O)NC(=O)[C@H](CO)NC(=O)[C@@H](NC(=O)[C@H](Cc1ccccc1)NC(=O)[C@@H](NC(=O)CNC(=O)[C@H](CCC(=O)O)NC(=O)CCNC(=O)C(C)(C)c1cc(F)cc(C#N)c1)[C@@H](C)O)[C@@H](C)O)C(=O)N[C@@H](Cc1ccc(O)cc1)C(=O)N[C@@H](CC(C)C)C(=O)N[C@@H](CC(=O)O)C(=O)N[C@@H](CCCCN)C(=O)N[C@@H](CCC(N)=O)C(=O)N[C@@H](C)C(=O)N[C@@H](C)C(=O)NC(C)(C)C(=O)N[C@@H](CCC(=O)O)C(=O)N[C@@H](Cc1ccccc1)C(=O)N[C@H](C(=O)N[C@@H](CC(N)=O)C(=O)N[C@@H](Cc1c[nH]c2ccccc12)C(=O)N[C@@H](CC(C)C)C(=O)N[C@@H](CC(C)C)C(=O)N[C@@H](C)C(=O)NCC(=O)NCC(=O)N1CCC[C@H]1C(=O)N[C@@H](CO)C(=O)N[C@@H](CO)C(=O)NCC(=O)N[C@@H](C)C(=O)N1CCC[C@H]1C(=O)N1CCC[C@H]1C(=O)N1CCC[C@H]1C(=O)N[C@@H](CO)C(N)=O)C(C)C [Compound 167] ({Isobutyryl(2-(3-CN-5-F-Ph))-βAla}-EGTFTSDK([AEEA-AEEA-γGlu-C20 diacid])SIYLDKQAA[Aib]EFVNWLLAGGPSSGAPPPS-NH2)	10 to 100	91	> 1000	> 1000	0.1 to 1	108
CC[C@H](C)[C@H](NC(=O)[C@H](CC(C)C)NC(=O)[C@H](Cc1c[nH]c2ccccc12)NC(=O)[C@H](CCC(N)=O)NC(=O)[C@@H](NC(=O)[C@H](Cc1ccccc1)NC(=O)[C@H](C)NC(=O)[C@H](CCCCNC(=O)COCCOCCNC(=O)COCCOCCNC(=O)CC[C@H](NC(=O)CCCCCCCCCCCCCCCCCCC(=O)O)C(=O)O)NC(=O)[C@H](CCC(N)=O)NC(=O)[C@H](C)NC(=O)[C@@H](NC(=O)[C@H](CCCCN)NC(=O)[C@H](CC(=O)O)NC(=O)[C@H](CC(C)C)NC(=O)C(C)(C)NC(=O)[C@@H](NC(=O)[C@H](CO)NC(=O)[C@H](Cc1ccc(O)cc1)NC(=O)[C@H](CC(=O)O)NC(=O)[C@H](CO)NC(=O)[C@@H](NC(=O)[C@H](Cc1ccccc1)NC(=O)[C@@H](NC(=O)CNC(=O)[C@H](CCC(=O)O)NC(=O)CCNC(=O)C(C)(C)c1c(F)cccc1F)[C@@H](C)O)[C@@H](C)O)[C@@H](C)CC)[C@@H](C)CC)C(C)C)C(=O)N[C@@H](C)C(=O)NCC(=O)NCC(=O)N1CCC[C@H]1C(=O)N[C@@H](CO)C(=O)N[C@@H](CO)C(=O)NCC(=O)N[C@@H](C)C(=O)N1CCC[C@H]1C(=O)N1CCC[C@H]1C(=O)N1CCC[C@H]1C(=O)N[C@@H](CO)C(N)=O [Compound 163] ({X69-βAla}-EGTFTSDYSI[Aib]LDKIAQK([AEEA-AEEA-γGlu-C20 diacid])AFVQWLIAGGPSSGAPPPS-NH2)	10 to 100	105	> 1000	< 1000	0.1 to 1	104
CC[C@H](C)[C@H](NC(=O)[C@H](CC(C)C)NC(=O)[C@H](Cc1c[nH]c2ccccc12)NC(=O)[C@H](CCC(N)=O)NC(=O)[C@@H](NC(=O)[C@H](Cc1ccccc1)NC(=O)[C@H](C)NC(=O)[C@H](CCCCNC(=O)COCCOCCNC(=O)COCCOCCNC(=O)CC[C@H](NC(=O)CCCCCCCCCCCCCCCCCCC(=O)O)C(=O)O)NC(=O)[C@H](CCC(N)=O)NC(=O)[C@H](C)NC(=O)[C@@H](NC(=O)[C@H](CCCCN)NC(=O)[C@H](CC(=O)O)NC(=O)[C@H](CC(C)C)NC(=O)C(C)(C)NC(=O)[C@@H](NC(=O)[C@H](CO)NC(=O)[C@H](Cc1ccc(O)cc1)NC(=O)[C@H](CC(=O)O)NC(=O)[C@H](CO)NC(=O)[C@@H](NC(=O)[C@H](Cc1ccccc1)NC(=O)[C@@H](NC(=O)CNC(=O)[C@H](CCC(=O)O)NC(=O)CCNC(=O)C(C)c1cc(F)cc(F)c1)[C@@H](C)O)[C@@H](C)O)[C@@H](C)CC)[C@@H](C)CC)C(C)C)C(=O)N[C@@H](C)C(=O)NCC(=O)NCC(=O)N1CCC[C@H]1C(=O)N[C@@H](CO)C(=O)N[C@@H](CO)C(=O)NCC(=O)N[C@@H](C)C(=O)N1CCC[C@H]1C(=O)N1CCC[C@H]1C(=O)N1CCC[C@H]1C(=O)N[C@@H](CO)C(N)=O (stereo partly drawn) [Compound 216] ({X77-βAla}-EGTFTSDYSI[Aib]LDKIAQK([AEEA-AEEA-γGlu-C20 diacid])AFVQWLIAGGPSSGAPPPS-NH2)	10 to 100	93	> 1000	> 1000	0.1 to 1	102
